Experiments:
RPTE/hTERT cells = experiment: Cell viability assay, CellTiter-Blue fluorescence
Procedure: RPTE/hTERT cells were treated with MAT2A inhibitors at increasing concentrations for 48 hrs and assayed for cell viability using CellTiter-Blue fluorescence. Experiments were conducted using biological triplicates.
Experiment was conducted using biological triplicates.
Cell viability was assessed using the Cell-Titer-Blue assay (Promega), following manufacturers guidelines.

Zika African strain = experiment: Western blot of Zika E protein in VERO E6 cells, African strain; type: cell-based, Zika virus; conditions: 20 μM, MOI >10, 48 hrs
Procedure: (§1) (B) Zika: VERO E6 cells were plated. The following day 20 μM PF-9366 or DMSO control was added to media. After 3 hrs cells were infected with Zika African strain, American Strain or Mock infected (MOI >10). After 48 hrs cells were harvested by scraping, pelleted and lysed into lysis buffer. Western blot was then conducted on the lysed cells. Protein embedded SDS-PAGE gels were transferred to membranes overnight and then probed for Zika E protein and GAPDH as a control.
(§2) For Flavivirus infections VERO E6 cells were infected with either African (Afn) or American (Amer) Zika at a multiplicity of infection (MOI) greater than 10, diluted in appropriate medium. At 1 hour post infection (hpi) medium was removed, cells were washed twice with phosphate-buffered saline (PBS), and fresh medium was added. At 48 hpi cells were either harvested for western blot.
(§3) Cell lysate preparation and western blots were performed as described in Ren et al. (J Gen Virol. 2012 February; 93 (Pt 2): 319-329). Primary antibodies used were ab53977 (VP1), PAb416 (LTAg), sc-166452 (MAT2A/1A), ab110226 (VP16), sc-53070 (ICP0), anti-Zika E Protein, and either anti-GAPDH or anti-tubulin as a loading control, followed by IRDye 680LT-, or IRDye 800CW-conjugated secondary antibodies. Imaging was performed using the LI-COR Odyssey Infrared Imaging system. Quantification was performed using LI-COR Image Studio Software. […]

MAT2A = experiment: Western blot of cellular MAT2A expression in BKPyV infected RPTE/TERT1 cells; type: cell-based, human; conditions: 10 μM; BKPyV MOI 3; 48 hpi; normalised to tubulin
Procedure: (C)(i) Effect of PF-9366 on viral early and late gene and cellular MAT2A expression: Cells were infected with BKPyV (MOI 3) in media containing appropriate drug concentrations. At 1 hpi infectious media was removed, cells were washed and fresh media with appropriate drug concentrations was added. Cells were harvested at 48 hpi and a western blot performed. Membranes were blotted for viral late gene VP1, LTAg, cellular MAT2A/MAT1A, and tubulin as a loading control.
(ii) Cellular MAT2A expression increases at lower PF-9366 concentrations: The density of MAT2A expression (lower western blot band) was measured, normalized to tubulin loading control (LiCor Image Studio Software), n=3.
It has previously been noted by Quinlan et al. (Nat Chem Biol. 2017 13 (7): 785-792) that treatment with PF-9366 can increase MAT2A expression as a compensatory mechanism within cells. […] At 48 hpi cells were harvested and protein expression was analysed by western blotting (FIG. 3C(i)). MAT2A expression was quantified from band intensities, normalised to the tubulin loading control and plotted (FIG. 3C(ii), n=3). […]
Cell lysate preparation and western blots were performed as described in Ren et al. (J Gen Virol. 2012 February; 93 (Pt 2): 319-329). […] Quantification was performed using LI-COR Image Studio Software.

Zika American Strain = experiment: Western blot of Zika E protein in VERO E6 cells, American strain; type: cell-based, Zika virus; conditions: 20 μM, MOI >10, 48 hrs
Procedure: as §1, §2, §3

[1] = test system: Herpes Simplex Virus-1 (HSV-1); experiment: HSV-1 titre by plaque assay (HaCaT cells infected, titrated on VERO cells); type: cell-based; conditions: 20 μM, MOI 10, 16 hrs
Procedure: FIG. 9: Inhibition of MAT2A with PF-9366 reduces Herpes Simplex Virus-1 (HSV-1) virion assembly Immortalised keratinocyte (HaCaT) cells were plated and treated with 20 μM PF-9366 or DMSO control. After 3 hrs cells were infected with HSV-1 (MOI 10). After 16 hrs cells were harvested by scraping and either pelleted for western blot or freeze/thawed for titration. To titre: VERO cells were plated and the following day infected with 10-fold dilutions, at 1 hpi cells were overlayed with CMC/media. At 48 hpi cells were fixed and stained with toluidine blue. To western blot: Pellets were lysed and run on SDS-PAGE gel. Proteins were transferred overnight to nitrocellulose membranes. Membranes were probed for HSV-1 ICP0 and VP16 proteins and Tubulin as a control.
For HSV-1 infections HaCaT cells were infected with HSV-1 at a multiplicity of infection (MOI) of 10 diluted in appropriate medium. At 1 hour post infection (hpi) medium was removed, cells were washed twice with phosphate-buffered saline (PBS), and fresh medium was added with or without inhibitors. At 16 hpi cells were either harvested for western blot or virus titre by plaque assay.
For HSV-1, confluent VERO cell monolayers were infected with 10-fold dilutions of samples. […] Cells were fixed at 48 hpi and stained with toluidine blue, allowing plaques to be counted. […]

[2] = test system: Semliki Forest Virus 4 (SFV4); experiment: SFV4 titre by plaque assay (BHK-21 cells infected, titrated on BSR cells); type: cell-based; conditions: 2 μM, MOI >10, 24 hrs, initial tests
Procedure: (A) SINV and SFV4: BHK-21 cells were plated. The following day 2 μM PF-9366 or DMSO control was added to media. After 3 hrs cells were infected with SINV or SFV4 (MOI >10). After 24 hrs cells were harvested by scraping. Cells were either pelleted for western blot or freeze/thawed for titration. To titre: BSR cells were plated and the following day infected with 10-fold dilutions, at 1 hpi cells were overlayed with LMA in 2×MEM (+5% FCS). At 72 hpi cells were fixed and stained with toluidine blue.
For Alphavirus infections BHK-21 cells were infected with either SINV or SFV-4 at a multiplicity of infection (MOI) greater than 10, diluted in appropriate medium. At 1 hour post infection (hpi) medium was removed, cells were washed twice with phosphate-buffered saline (PBS), and fresh medium was added. At 24 hpi supernatants were harvested for virus titre by plaque assay.
For SINV and SFV4, confluent BSR cell monolayers were infected with 10-fold dilutions of samples. At 1 hpi cells were overlayed with low melting-point agarose in 2×MEM (+5% FCS). Cells were fixed at 72 hpi and stained with toluidine blue, allowing plaques to be counted.
TSG101 inhibitor Ilaprazole (Sigma-Aldrich) was diluted in 100% DMSO. […]

SMILES	effect on cell viability and metabolism (RPTE/hTERT cells; MAT2A inhibitor (AG270 1 μM, AZ33 125 nM) in combination with Ilaprazole (5 μM), until 144 hr)	effect on cell viability and metabolism (RPTE/hTERT cells; at concentrations inhibiting BKPyV replication, 48 hrs)	viral protein expression (Zika E protein), African strain (Zika African strain)	increase in the cellular expression of MAT2A (MAT2A)	viral protein expression (Zika E protein), American strain (Zika American Strain)	reduction in HSV-1 viral titres [1]	reduction in viral titre (SFV4) [2]
COc1ccc(-c2c(Nc3ccccn3)[nH]c3c(C4=CCCCC4)c(-c4ccccc4)nn3c2=O)cc1 [AG-270]	little effect	little effect					
CN(C)CCc1nnc2cc(-c3ccccc3)c3cc(Cl)ccc3n12 [PF-9366]			reduction	8 fold	reduction	greater than 100 fold	7-10 fold
